From patent US20110190373A1, “METHODS AND COMPOSITIONS FOR THE TREATMENT OR PREVENTION OF PATHOLOGICAL CARDIAC REMODELING AND HEART FAILURE” (UNIVERSITY OF ROCHESTER, priority 2008, published 2011)
Entries after “also recorded” stand apart in the source; their conditions may differ.

Tests used:
[1] = system: rat neonatal cardiomyocytes; assay: PE-induced cardiomyocyte hypertrophy, myocyte (cell) surface area; format: cell-based; details: NRVM
Method: (§1) FIGS. 3A-C show the effects of PDE1 inhibitors on pathological cardiomyocyte hypertrophy. Myocyte hypertrophy was induced in NRVM by α-adrenergic agonist, phenylephrine (PE). Hypertrophy was assessed by protein synthesis by measuring [^3H]-leucine incorporation (normalized to the total DNA content), or by myocyte surface area. PDE inhibitor 8-MM-IBMX (at 10 μM the concentration selective to PDE1) blocked PE-induced cardiomyocyte protein synthesis measured by [^3H]-leucine incorporation (FIG. 3A) or measured by myocyte surface area (FIG. 3B).
Effects of PDE1 inhibitor 8-MM-IBMX on PE-stimulated cell hypertrophic growth were measured by cell surface area (FIG. 3B). Rat neonatal cardiomyocytes were treated with either […] or vehicle, followed without (ctrl) or with PE stimulation. Cells were stained for α-actinin (a cardiomyocyte specific marker) to exclude the contamination of cardiac fibroblasts. At lease 100 α-actinin positive cells were analyzed. Cell surface area was measured by Image J program.
Effects of PDE1 inhibitor vinpocetine on PE-stimulated cell hypertrophic growth were measured by cell surface area (FIG. 3C). Rat neonatal cardiomyocytes were treated with either 20 μM Vinpocetine (vinp) or vehicle, followed without (ctrl) or with PE stimulation. Cell surface area was measured as above. Data were normalized to control (vehicle, without PE) that was arbitrarily set to 1.0. Data are means of at least 100 cells (mean±SD). […]
(§2) FIG. 4A illustrates a representative Western blot showing PDE1A protein expression in neonatal cardiomyocytes either not transfected (NT), or transfected with off-targeting control siRNA (1 μg) or rat PDE1A siRNA (0.5 or 1.0 μg) for 72 hours via electroporation. […] Protein synthesis assessed by [^3H]-leucine incorporation (normalized to the total DNA content) in NRVM transfected with 1 μg of control siRNA or PDE1A siRNA followed by PE (50 μmol/L) or vehicle (ctrl) stimulation for 48 hours (FIG. 4B). […] Data were quantified by densitometry in a linear range and normalized to GAPDH mRNA levels. […]

[2] = system: rat neonatal cardiomyocytes; assay: PE-induced cardiomyocyte hypertrophy, protein synthesis by [3H]-leucine incorporation; format: cell-based; details: NRVM
Method: as §1
Rat neonatal cardiomyocytes were cultured in serum-free medium for 24 hours. […] Cells were lysed and ^3H-leucine incorporation in cell lysates were then measured by scintillation counter. […]
as §2

[3] = system: mouse cardiac hypertrophy; assay: Cardiac hypertrophy induced by chronic ISO infusion in mice; format: in vivo; details: i.p. 10 mg/kg/d, ISO 30 mg/kg/d for 7 days
Method: FIGS. 5A-F illustrate that Vinpocetine attenuates cardiac hypertrophy in vivo. C57 mice received continuous vehicle (0.002% ascorbic acid in PBS) or ISO (30 mg/kg/d) infusion via osmotic pumps for 7 days, and also received daily DMSO or Vinpocetine treatment (i.p. 10 mg/kg/d). Control group (Con): mice receiving only vehicle infusion for 7 days. ISO group: mice receiving ISO infusion and DMSO treatment for 7 days. ISO+Vinp group: mice receiving ISO infusion and vinpocetine treatment for 7 days. After 7 days, animals were sacrificed and hearts were excised, weighed, frozen in −80° C. for mRNA assay, or fixed in 10% formalin for histology analysis. FIG. 5A are representative gross heart images showing effects of PDE1 inhibitor on cardiac hypertrophy. FIGS. 5B-C are graphs showing the effect of Vinpocetine on heart to body weight ratio or heart weight to tibial length ratio, respectively. […] FIGS. 5E-F are graphs showing the effect of Vinpocetine on ANP and BNP mRNA expression, respectively. Total RNA from left ventricles were subjected to real-time RT-PCR analyses for the mRNA levels of ANP and BNP. Data were normalized to control and sham samples that were arbitrarily set to 1.0. Data represent mean of 4 animals (mean±SEM). **P<0.01 vs. control mice. ##P<0.01 vs. ISO-infused mice without Vinpocetine. […] PDE1 is a well known biological target for Vinpocetine. […] Based on these reasons, the effects of Vinpocetine were tested on cardiomyocyte hypertrophy in vivo.

[4] = therapeutic doses, patients; cited from earlier work
[5] = 20 μM, α-actinin positive cells

Structure (SMILES)	PE-induced hypertrophy measured by myocyte surface area ([1]; 10 μM (figure legend))	PE-induced hypertrophy measured by myocyte surface area [1, 5]	PE-induced cardiomyocyte protein synthesis measured by [3H]-leucine incorporation ([2]; 10 μM (figure legend))	PE-induced hypertrophy assessed by protein synthesis with 3H-leucine incorporation ([2]; 20 μmol/L, PE 48 hours, normalized to DNA content)	ISO-induced increase in cross-section areas of cardiomyocytes in left ventricles ([3]; H&E staining)	cardiac hypertrophy measured by gross heart morphology ([3]; mouse)	heart weight/body weight (HW/BW) ratio ([3]; mouse)	heart weight/tibia length (HW/TL) ratio ([3]; mouse)	ANP mRNA level in left ventricle ([3]; real-time RT-PCR)	BNP mRNA level in left ventricle ([3]; real-time RT-PCR)	side effects, toxicity or contraindications [4]
COCc1nc2c([nH]1)c(=O)n(C)c(=O)n2CC(C)C [8-MM-IBMX, 8-methoxymethyl-isobutylmethylxanthine]	blocked	significantly attenuated	blocked	significantly attenuated							
CCOC(=O)C1=C[C@]2(CC)CCCN3CCc4c(n1c1ccccc41)[C@@H]32 [Vinpocetine, (+)-vinpocetine]		significantly reduced; also recorded: significantly blocked			significantly attenuated	significantly reduced	significantly reduced	significantly reduced	significantly decreased	significantly decreased	no reports of significant side effects, toxicity or contraindications
